The values below come from patent US6444852B1, “Amines useful in inhibiting gas hydrate formation” (Goldschmidt Chemical Corporation, priority 1999, dated 2002).

Data set [1] in a line: Behavior (solubility/dispersibility) in water and […] brine at 5% concentration. It is filed as physicochemical. As to conditions: 5% concentration as is. An excerpt: The compounds tested are set forth in the following Table 1, CE# denotes a comparative example, whereas S# denotes a compound of the present invention.
Data set [2] in a line: Anti-agglomeration of gas hydrates in presence of crude oil (high-pressure autoclave). To be noted: for State of the hydrates after depressurization: 1.125% solvent-free basis in salt water, 3300 psi, 40° F. 16 hours. Here is the method:
The comparative test was carried out at a 50:50 oil to water ratio.
The crude oil was heated to 150° F. to dissolve waxes. […] To saturate the liquid with gas, after 30 minutes, the agitation was reduced to 100 rpm and the autoclave was cooled at 10° F./hr to 40° F., at which time, agitation was stopped and the 40° F. temperature was maintained for 16 hours.
After the 16 hour time period, agitation was restarted at 500 rpm to determine the torque required and the experiment was run for 5 hours, if possible. The autoclave was then rapidly depressurized and the state of the hydrates was observed.

Take `CCCCCCCCCCCCCCCC[N+](CCCC)(CCCC)CCCC.[Br-]` [CE2, Hexadecyl tributyl ammonium bromide, reference compound]: the “Behavior in Water” value in data set [1] is “Insoluble”.
For “C12-C14 oxypropyl dibutyl amino propyl tributylammonium dibromide [Sample S5]”, in data set [1], the “Behavior in […] Brine” value is on record as “Soluble” and the “Behavior in Water” value was “Soluble”.
“C12-C14 oxypropyl dibutyl ethylammonium ethylsulfate [Sample S4]”: in data set [1], the “Behavior in […] Brine” value was “Soluble” and the “Behavior in Water” value is given as “Soluble”.
With “C12-C14 oxypropyl dibutyl methylammonium methyl sulfate [Sample S2]”, in data set [1], the “Behavior in […] Brine” value is “Soluble” and the “Behavior in Water” value is on record as “Soluble”.
As for “C12-C14 oxypropyl tributylammonium bromide [Sample S1]”, the “State of the hydrates after depressurization” value in data set [2] (oil to water 50:50) and in data set [2] (oil to water 70:30) was “very small particles which were creamy in texture” in each case. In addition, the “Gas hydrates on the walls of the reactor” value in data set [2] (1.125% solvent-free basis, 70:30 and 50:50 ratios) is listed as “No gas hydrates were observed on the walls of the reactor”. In data set [2] (low use levels), the “Effectiveness as anti-agglomeration agent” value is on record as “highly effective”.
